Structures are written as SMILES. Active and inactive are the calls of the source. No rule for the calls is given here.

Here are results for 9 compounds from PubChem BioAssay AID1259411 (Chemical Carcinogenesis Research Information System (CCRIS), 2018).

In the data set the test system is rodent carcinogenicity bioassays, tumor incidence. Nature of the data set: CCRIS carcinogenicity studies. The note with it: Dose: 0, Dose: 0. The source says: The CCRIS database contains chemical records with carcinogenicity, mutagenicity, tumor promotion, and tumor inhibition test results. It was developed by the National Cancer Institute (NCI). Data are derived from studies cited in primary journals, current awareness tools, NCI reports, and other sources. Test results have been reviewed by experts in carcinogenesis and mutagenesis.
CCRIS provides historical information from the years 1985 - 2011. It is no longer updated.
This is an archive assay for CCRIS carcinogenicity studies.

With `O=Nc1ccc(Nc2ccccc2)cc1`, the carcinogen call is “inactive; negative” (Species: MOUSE, Strain/Sex: B6C3F1/FEMALE, Route: ORAL, 4254, 9000 PPM IN DIET, TWA, 4254, 9000 PPM IN DIET, TWA); “active; positive” (Species: MOUSE, Strain/Sex: B6C3F1/MALE, Route: ORAL, 4254, 9000 PPM IN DIET, TWA, 4254, 9000 PPM IN DIET, TWA, Tumor Site: Type of Lesion: LIVER: HEPATOCELLULAR ADENOMA OR CARCINOMA); “inactive; negative” (Species: RAT, Strain/Sex: F344/FEMALE, Route: ORAL, 2500, 5000 PPM IN DIET, 2500, 5000 PPM IN DIET); “active; positive” (Species: RAT, Strain/Sex: F344/MALE, Route: ORAL, 2500, 5000 PPM IN DIET, 2500, 5000 PPM IN DIET, Tumor Site: Type of Lesion: LIVER: HEPATOCELLULAR CARCINOMA OR NEOPLASTIC NODULE).
On to `c1ccc2c(c1)ccc1c3ccccc3sc21`, for which the carcinogen call (Species: RAT, Strain/Sex: OSBORNE-MENDEL/FEMALE, Route: INTRAPULMONARY IMPLANT, 1, 3, 6 MG IN BEESWAX AND TRIOCTANOIN IMPLANTED IN LUNG (STUDY DURATION: 141 WK), 1, 3, 6 MG IN BEESWAX AND TRIOCTANOIN IMPLANTED IN LUNG (STUDY DURATION: 141 WK), Tumor Site: Type of Lesion: LUNG: CARCINOMA) was “active; positive”.
As to `O=[N+]([O-])c1ccc2ccc3cc4ccccc4c4ccc1c2c34`, the carcinogen call by setting is: (Species: MOUSE, Strain/Sex: B6C3F1/MALE, Route: INTRAPERITONEAL, 400 NMOL IN 35 µL DMSO ON DAYS 1 (1/7 TOTAL DOSE), 8 (2/7 TOTAL DOSE), AND 15 (4/7 TOTAL DOSE) AFTER BIRTH (STUDY DUR) “inactive; negative”; (Species: RAT, Strain/Sex: F344/MALE, Route: SUBCUTANEOUS, 500, 1000 UG SUSPENDED IN BEESWAX/TRICAPRYLIN (1:1) ONCE (STUDY DURATION: LIFETIME), 500, 1000 UG SUSPENDED IN BEESWAX/TRICAPRYLIN (1:1) ONCE (STUDY DURATION: LIFETIME)) “inactive; negative”.
For the compound `Cn1c2ccccc2c2ccccc21`, the carcinogen call reads like this: (Species: MOUSE, Strain/Sex: CD-1/FEMALE, Route: INTRAPERITONEAL, 1.75 UMOL/MOUSE (TOTAL DOSE) ADMINISTERED DURING DAYS 1, 8, AND 15 OF LIFE (STUDY DURATION: 52 WK)) “inactive; negative”; (Species: MOUSE, Strain/Sex: CD-1/MALE, Route: INTRAPERITONEAL, 1.75 UMOL/MOUSE (TOTAL DOSE) ADMINISTERED DURING DAYS 1, 8, AND 15 OF LIFE (STUDY DURATION: 52 WK)) “inactive; negative”.
For `CCCNN`, the carcinogen call is “active; positive” (Species: MOUSE, Strain/Sex: SWISS/FEMALE, Route: ORAL, 0.025% SOLUTION IN DRINKING WATER DAILY FOR LIFE FOR AND AVERAGE DAILY INTAKE OF 0, 3.0 MG (STUDY DURATION: 100 WK), 0.025% SOLUTION IN DRINKING WATER DAILY FOR LIFE FOR AND AVERAGE DAILY INTAKE OF 0, 3.0 MG (STUDY DURATION: 100 WK), Tumor Site: Type of Lesion: LUNG: ADENOMA, LUNG: ADENOMA OR ADENOCARCINOMA) and “active; positive” (Species: MOUSE, Strain/Sex: SWISS/MALE, Route: ORAL, 0.025% SOLUTION IN DRINKING WATER DAILY FOR LIFE FOR AN AVERAGE DAILY INTAKE OF 0, 2.9 MG (STUDY DURATION: 100 WK), 0.025% SOLUTION IN DRINKING WATER DAILY FOR LIFE FOR AN AVERAGE DAILY INTAKE OF 0, 2.9 MG (STUDY DURATION: 100 WK), Tumor Site: Type of Lesion: LUNG: ADENOMA, LUNG: ADENOMA OR ADENOCARCINOMA).
As to `Nc1cc([N+](=O)[O-])ccc1O`, the carcinogen call runs as follows: (Species: MOUSE, Strain/Sex: B6C3F1/FEMALE, Route: GAVAGE, 125, 250 MG/KG IN CORN OIL 5D/WK FOR 103 WK (STUDY DURATION: 105 WK), 125, 250 MG/KG IN CORN OIL 5D/WK FOR 103 WK (STUDY DURATION: 105 WK)) “inactive; negative”; (Species: MOUSE, Strain/Sex: B6C3F1/MALE, Route: GAVAGE, 125, 250 MG/KG IN CORN OIL 5D/WK FOR 103 WK (STUDY DURATION: 105 WK), 125, 250 MG/KG IN CORN OIL 5D/WK FOR 103 WK (STUDY DURATION: 105 WK)) “inactive; negative”; (Species: RAT, Strain/Sex: F344/FEMALE, Route: GAVAGE, 125, 250 MG/KG IN CORN OIL 5D/WK FOR 103 WK (STUDY DURATION: 105 WK), 125, 250 MG/KG IN CORN OIL 5D/WK FOR 103 WK (STUDY DURATION: 105 WK)) “inactive; negative”; (Species: RAT, Strain/Sex: F344/MALE, Route: GAVAGE, 125, 250 MG/KG IN CORN OIL 5D/WK FOR 103 WK (STUDY DURATION: 105 WK), 125, 250 MG/KG IN CORN OIL 5D/WK FOR 103 WK (STUDY DURATION: 105 WK), Tumor Site: Type of Lesion: PREPUTIAL GLAND: ADENOMA OR CARCINOMA) “active; positive”.
With `CN(C)C=O`, the carcinogen call runs as follows: (Species: MOUSE, Strain/Sex: CRL:CD-1(ICR)BR/FEMALE, Route: INHALATION, 25, 100, 400 PPM 6 HR/D 5 D/WK FOR 18 MO (STUDY DURATION: 18 MO), 25, 100, 400 PPM 6 HR/D 5 D/WK FOR 18 MO (STUDY DURATION: 18 MO)) “inactive; negative”; (Species: MOUSE, Strain/Sex: CRL:CD-1(ICR)BR/MALE, Route: INHALATION, 25, 100, 400 PPM 6 HR/D 5 D/WK FOR 18 MO (STUDY DURATION: 18 MO), 25, 100, 400 PPM 6 HR/D 5 D/WK FOR 18 MO (STUDY DURATION: 18 MO)) “inactive; negative”; (Species: RAT, Strain/Sex: CRL:CD BR/FEMALE, Route: INHALATION, 25, 100, 400 PPM 6 HR/D 5 D/WK FOR 24 MO (STUDY DURATION: 24 MO), 25, 100, 400 PPM 6 HR/D 5 D/WK FOR 24 MO (STUDY DURATION: 24 MO)) “inactive; negative”; (Species: RAT, Strain/Sex: CRL:CD BR/MALE, Route: INHALATION, 25, 100, 400 PPM 6 HR/D 5 D/WK FOR 24 MO (STUDY DURATION: 24 MO), 25, 100, 400 PPM 6 HR/D 5 D/WK FOR 24 MO (STUDY DURATION: 24 MO)) “inactive; negative”.
Take `CNC(=S)N(C)C`: the carcinogen call is “inactive; negative” (Species: MOUSE, Strain/Sex: B6C3F1/FEMALE, Route: ORAL, 500, 1000 PPM IN DIET, 500, 1000 PPM IN DIET); “inactive; negative” (Species: MOUSE, Strain/Sex: B6C3F1/MALE, Route: ORAL, 500, 1000 PPM IN DIET, 500, 1000 PPM IN DIET); “active; positive” (Species: RAT, Strain/Sex: F344/FEMALE, Route: ORAL, 250, 500 PPM IN DIET, 250, 500 PPM IN DIET, Tumor Site: Type of Lesion: THYROID GLAND: FOLLICULAR CELL CARCINOMA OR ADENOMA); “inactive; negative” (Species: RAT, Strain/Sex: F344/MALE, Route: ORAL, 250, 500 PPM IN DIET, 250, 500 PPM IN DIET).
`Nc1cc(S(=O)(=O)O)cc2c1C(=O)/C(=N/Nc1ccc(-c3ccc(N/N=C4/C(=O)c5c(N)cc(S(=O)(=O)O)cc5C=C4S(=O)(=O)O)cc3)cc1)C(S(=O)(=O)O)=C2`: the carcinogen call is “active; positive” (Species: RAT, Strain/Sex: F344/FEMALE, Route: ORAL, 190, 375, 750, 1500, 3000 PPM IN DIET FOR 91 D (STUDY DURATION: 93 D), 190, 375, 750, 1500, 3000 PPM IN DIET FOR 91 D (STUDY DURATION: 93 D), Tumor Site: Type of Lesion: LIVER: HEPATOCELLULAR CARCINOMA OR NEOPLASTIC NODULE, FOCI OF CELLULAR ALTERATION OR BASOPHILIC FOCI) and “active; positive” (Species: RAT, Strain/Sex: F344/MALE, Route: ORAL, 190, 375, 750, 1500, 3000 PPM IN DIET FOR 91 D (STUDY DURATION: 93 D), 190, 375, 750, 1500, 3000 PPM IN DIET FOR 91 D (STUDY DURATION: 93 D), Tumor Site: Type of Lesion: LIVER: HEPATOCELLULAR CARCINOMA OR NEOPLASTIC NODULE, FOCI OF CELLULAR ALTERATION OR BASOPHILIC FOCI).
